The values that follow come from patent publication US20110190503A1, “Thiazolopyridin-2-yloxy-phenyl and thiazolopyrazin-2-yloxy-phenyl amines as modulators of leukotriene A4 hydrolase” (Janssen Pharmaceutical NV, priority 2008, published 2011).

Assay [1] deals with ionophore-induced LTB4 production. Particulars: oral administration; cited from earlier work.
The test system is the same in assay [2]. Particulars: oral administration; cited from earlier work. The source holds these as a separate data set.
In a further assay the test system is colitis symptoms. Particulars: eight weeks of treatment, cotton top tamarins; cited from earlier work.
Assay [3] has as its target T1, recombinant human LTA4 hydrolase (rhLTA4H) (Homo sapiens, UniProt P09960).
T1 construct: made in house; host or cells: Spodoptera frugiperda (Sf-9) cells, recombinant baculovirus (pFastBac1)
T1 sequence (P09960 1-611): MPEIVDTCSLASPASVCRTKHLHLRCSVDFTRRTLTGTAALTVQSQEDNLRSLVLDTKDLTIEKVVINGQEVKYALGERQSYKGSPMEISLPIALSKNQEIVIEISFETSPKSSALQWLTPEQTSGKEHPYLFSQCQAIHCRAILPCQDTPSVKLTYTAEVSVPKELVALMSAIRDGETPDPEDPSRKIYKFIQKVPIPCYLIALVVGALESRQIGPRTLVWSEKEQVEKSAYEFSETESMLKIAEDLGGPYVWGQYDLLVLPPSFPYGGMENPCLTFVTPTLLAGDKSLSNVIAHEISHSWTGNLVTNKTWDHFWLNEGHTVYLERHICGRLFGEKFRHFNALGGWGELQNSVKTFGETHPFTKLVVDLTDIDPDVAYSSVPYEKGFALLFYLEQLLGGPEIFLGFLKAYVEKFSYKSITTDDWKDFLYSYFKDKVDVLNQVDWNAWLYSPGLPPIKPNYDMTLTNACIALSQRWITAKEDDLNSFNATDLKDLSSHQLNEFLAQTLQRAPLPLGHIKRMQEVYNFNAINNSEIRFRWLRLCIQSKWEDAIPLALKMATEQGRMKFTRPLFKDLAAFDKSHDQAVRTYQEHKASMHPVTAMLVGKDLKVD
The experiment in a line: Recombinant human LTA4 hydrolase assay for LTA4 hydrolase inhibitor activity. The note with it: rhLTA4H, LTA4 substrate, LTB4 by immunoassay; single determination or average; read-out: IC50. Type of assay: biochemical. The method in brief:
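Recombinant human LTA4H from baculovirus-infected Sf-9 cells (10 ng) pre-incubated 10 min at rt with compound (10% DMSO in dilutions), then reacted with free-acid LTA4 for 30 min at rt. LTB4 measured by ELISA; IC50 by nonlinear regression. Values are single determinations or averages.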

Assay [4] relates to LTB4 production by calcium ionophore-stimulated murine blood. Put plainly: LTB4 production by calcium ionophore-stimulated murine blood for LTA4H inhibitor activity. Particulars: Mus musculus; murine blood diluted 1 in 15, calcium ionophore A23187, LTB4 by immunoassay; read-out: IC50. The format is cell-based, CD-1 mice. The method, boiled down:
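Heparinized CD-1 mouse blood pre-incubated with compound 15 min at 37° C, then stimulated with calcium ionophore A23187 (7 μg/mL final) for 30 min. LTB4 in supernatant measured by enzyme immunoassay; values are single or averaged determinations, with SD for n≥3.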

Assay [5] relates to LTB4 production by calcium ionophore-stimulated human blood. The experiment in a line: LTB4 production by calcium ionophore-stimulated human blood for LTA4H inhibitor activity. The format is cell-based. The note with it: human blood diluted 1:1, calcium ionophore A23187, LTB4 by immunoassay; n in parentheses; read-out: IC50. The protocol:
Assay 3: LTB4 Production by Calcium Ionophore-Stimulated Human Blood for LTA4H Inhibitor Activity
Human blood was collected from healthy donors in heparin-containing syringes. The blood was diluted 1:1 with RPMI-1640 medium, and 200-μL aliquots of the diluted blood were added to wells of a 96-well microtiter plate. LTA4H inhibitor test compounds were prepared at different concentrations in RPMI-1640 medium containing 1% DMSO, and 20 μL of each test solution was added to a well containing diluted whole blood (final DMSO concentration of 0.1%). After the microtiter plate contents were incubated for 15 min at 37° C. in a humidified incubator, calcium ionophore A23187 (Sigma Chemical Co., St. Louis, Mo.) was added to each sample well (final concentration=7 μg/mL). The incubation was continued under the same conditions for an additional 30 min to allow LTB4 formation. The reaction was terminated by centrifugation (833×g, 10 min at 4° C.), and supernatants were analyzed for LTB4 by a commercially available enzyme-linked immunoassay (Cayman Chemical Co.) according to the manufacturer's instructions. Positive controls, under essentially identical conditions but without addition of an inhibitor compound, and negative unstimulated controls, containing all assay components except calcium ionophore, were routinely run in each experiment. IC50 values for compounds tested in this assay were determined by nonlinear regression of the activity data at different compound concentrations using Graphpad Prism 4.0, one site binding competition, and are presented in Table 3. The number of determinations made is indicated in parentheses following each value.

For assay [6], the system named is airway hyperresponsiveness. Particulars: primate model; cited from earlier work.
Assay [7] has as its system ex vivo stimulated LTB4 production. Put plainly: Murine arachidonic acid-induced inflammation model: ex vivo stimulated LTB4 production (% Inh. LTB4). Particulars: Mus musculus; female Balb/c mice, 30 mg/kg oral gavage; blood taken 3 h after arachidonic acid, ex vivo A23187 stimulation; number of determinations in parentheses. The method, boiled down: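 Female Balb/c mice got 30 mg/kg orally in 20% cyclodextran/H2O. Heparinized blood in RPMI-1640 was stimulated with A23187 ([…]) for 30 min at 37 °C. LTB4 was measured by ELISA as % inhibition versus vehicle-dosed mice.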

A further assay has as its system neutrophil influx. Put plainly: Murine arachidonic acid-induced inflammation model: neutrophil influx in ear, myeloperoxidase activity (% Inh. MPO). Type of assay: in vivo. The note with it: Mus musculus, female Balb/c mice, 30 mg/kg oral gavage, ear biopsy 3 h after topical arachidonic acid, number of determinations in parentheses. The method in brief:
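Female Balb/c mice were dosed orally at 30 mg/kg (20% cyclodextran/H2O). Ear biopsies at 3 h; MPO activity by TMB, A405, acetone ear subtracted; inhibition versus vehicle-dosed mice.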

The test system of another assay is atopic dermatitis. Particulars: small, open-label clinical trials; cited from earlier work.
The next assay has as its system pruritus. Particulars: Sjogren-Larsson syndrome patients; cited from earlier work.
Assay [8] has as its system bronchial hyperresponsiveness. The note with it: human asthma; cited from earlier work.
For assay [9] the following is noted: severe asthmatics; cited from earlier work.

Molecules are shown by their SMILES. Structures can show the parent of a compound that is named as a salt.

As for `CN(CCCOc1ccc(Cc2ccccc2)cc1)CCC(=O)O.Cl` [SC57461], in assay [1], the “inhibition of ionophore-induced LTB4 production in mouse blood ex vivo” value is reported as “caused inhibition”. The “inhibition of ionophore-induced LTB4 production in rat peritoneum in vivo” value in assay [2] is recorded as “caused inhibition”. The colitis symptoms result with colitis symptoms is “significantly improved”.

For orientation: IC50 means the concentration that inhibits the measured activity by half. With `NC(=O)N1C[C@@H]2CC[C@H]1CN2Cc1ccc(Oc2nc3ncccc3s2)cc1` [Example 293, (1S,4S)-5-[4-([1,3]Thiazolo[4,5-b]pyridin-2-yloxy)benzyl]-2,5-diazabicyclo[2.2.2]octane-2-carboxamide formate], the half-maximal inhibitory concentration (IC50) amounted to 3 nM in [3], 29 nM in assay [4] and 10 nM in assay [5].

Consider `O=C(O)C1(c2ccc3c(c2)OC[C@H](Cc2ccc(-c4ccccc4)cc2)[C@H]3O)CCCC1` [CP-105,696], for which the “airway hyperresponsiveness induced by multiple antigen challenges” value in assay [6] is on record as “reduced airway hyperresponsiveness”.

The inhibition is the share of the control response that was lost under treatment. By inhibition in vivo is commonly meant the relative decrease from the control value, in per cent. Consider `OC1(c2ccccc2)CCN(CCOc2ccc(Oc3nc4ncccc4s3)cc2)CC1` [Example 27, 4-Phenyl-1-{2-[4-([1,3]thiazolo[4,5-b]pyridin-2-yloxy)phenoxy]ethyl}piperidin-4-ol], for which the IC50 in assay [3] was determined as 32 nM; in assay [4], 160 nM. Besides, the inhibition at 30 mg/kg in assay [7] was 78.2%. The inhibition in vivo at 30 mg/kg with neutrophil influx was determined as 83.7%.

As to `c1cnc2nc(Oc3ccc(CCN4CCCCC4)cc3)sc2c1` [Example 60, 2-[4-(2-Piperidin-1-ylethyl)phenoxy][1,3]thiazolo[4,5-b]pyridine], the figures for the IC50 in [3] and in [4] were 3 nM and 15 nM, respectively. For the same compound, the inhibition at 30 mg/kg in [7] is 69.5%. Besides, the inhibition in vivo at 30 mg/kg with neutrophil influx was 35.8%.

Turning to `CC(c1cc2ccccc2s1)N(O)C(N)=O` (centres unmarked) [zileuton], the “effect in atopic dermatitis” value in the assay on atopic dermatitis was “beneficial effects”. The pruritus result in the assay with pruritus is given as “relieving the pruritus”. Besides, the bronchial hyperresponsiveness entry in assay [8] is “reduction of bronchial hyperresponsiveness”. For the same compound, the quality of life entry in assay [9] is reported as “significantly improve quality of life”.

For the compound `Cc1ccnc2nc(Oc3ccc(CN4CCC(C(N)=O)CC4)cc3)sc12` [Example 282, 1-{4-[(7-Methyl[1,3]thiazolo[4,5-b]pyridin-2-yl)oxy]benzyl}piperidine-4-carboxamide], the IC50 in assay [3] worked out at 66 nM; in assay [4], 155 nM. Besides, the inhibition at 30 mg/kg in assay [7] is 62.8%. Also, the inhibition in vivo at 30 mg/kg in the assay on neutrophil influx is 61.1%.

For `NC(=O)C1CCN(Cc2ccc(Oc3nc4nccnc4s3)cc2)CC1` [Example 285, 1-[4-([1,3]Thiazolo[4,5-b]pyrazin-2-yloxy)benzyl]piperidine-4-carboxamide], the IC50 was found to be 94 nM in assay [3] and 300 nM in assay [4]. In addition, the inhibition at 30 mg/kg in [7] stood at 19.7%. In the assay with neutrophil influx, the inhibition in vivo at 30 mg/kg was found to be 12.3%.

Consider `CC(=O)N[C@H]1C[C@H]2CC[C@@H](C1)N2Cc1ccc(Oc2nc3ncc(Cl)cc3s2)cc1` [Example 287, meso-endo-N-[8-{4-[(6-Chloro[1,3]thiazolo[4,5-b]pyridin-2-yl)oxy]benzyl}-8-azabicyclo[3.2.1]oct-3-yl]acetamide], for which the IC50 was 3 nM in assay [3] and 110 nM in [4]. Also, in [7], the inhibition at 30 mg/kg was determined as 89.8%. Moreover, the inhibition in vivo at 30 mg/kg in the assay with neutrophil influx stood at 86.7%.

`OC[C@@H]1CCCN1Cc1ccc(Oc2nc3ncccc3s2)cc1` [Example 108, {(2S)-1-[4-([1,3]Thiazolo[4,5-b]pyridin-2-yloxy)benzyl]pyrrolidin-2-yl}methanol]: the IC50 in assay [3] was 2.4 nM; in assay [4] it was 8 nM. Besides, in assay [7], the inhibition at 30 mg/kg was found to be 79.8%. Besides, the inhibition in vivo at 30 mg/kg with neutrophil influx came out at 71.4%.
